{"source": "paper PMC3893156", "about": "(Molecular Genetics & Genomic Medicine, 2013)", "key": {"[1]": {"target": "T1, Phosphomannomutase 2 (wt-PMM2) (Homo sapiens, UniProt O15305)", "T1 sequence (O15305 1-246)": "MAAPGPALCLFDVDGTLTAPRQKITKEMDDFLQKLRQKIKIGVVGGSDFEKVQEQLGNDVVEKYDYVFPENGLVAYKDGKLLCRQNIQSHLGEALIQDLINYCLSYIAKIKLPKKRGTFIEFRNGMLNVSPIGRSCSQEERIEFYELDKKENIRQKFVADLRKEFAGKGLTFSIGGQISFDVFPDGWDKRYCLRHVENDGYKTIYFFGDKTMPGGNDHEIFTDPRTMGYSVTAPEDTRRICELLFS", "assay": "activation of purified enzyme", "assay_type": "biochemical"}, "[2]": {"target": "T2, Phosphomannomutase 2 (F119L-PMM2) (Homo sapiens, UniProt O15305, F119L)", "T2 sequence (O15305 1-246 F119L)": "T1 sequence (O15305 1-246) with F119L", "assay": "activation of purified enzyme", "assay_type": "biochemical"}, "[3]": {"target": "T1, Phosphomannomutase 2 (wt-PMM2)", "assay": "thermal shift, size exclusion chromatography", "assay_type": "binding"}, "[4]": {"target": "T1, Phosphomannomutase 2 (wt-PMM2)", "assay": "thermal shift assay", "assay_type": "binding"}}, "note": "Changes are numbered by the printed parent chain. pEC50: −log10 of the molar value."}
{"smiles": "O=P(O)(O)OC[C@H]1O[C@H](OP(=O)(O)O)[C@H](O)[C@@H](O)[C@@H]1O", "note": "[Glc-1,6-P2, glucose-1,6-bisphosphate]", "values": [{"measurement": "pEC50", "setting": "[1]", "value": 5.00}, {"measurement": "pEC50", "setting": "[2]", "value": 4.44}]}
{"smiles": "O=P(O)(O)OC[C@H]1OC(O)[C@H](O)[C@@H](O)[C@@H]1O", "note": "(stereo partly drawn) [Glc-6-P, D-glucose 6-phosphate]", "values": [{"measurement": "thermal shift, size exclusion chromatography (dimer stabilization)", "setting": "[3]", "value": "Glc-1-P and Glc-6-P produce a small, but statistically significant increase of the midpoint temperature"}]}
{"smiles": "O=P(O)(O)OC[C@H]1O[C@H](OP(=O)(O)O)[C@@H](O)[C@@H](O)[C@@H]1O", "note": "[Man-1,6-P2, mannose 1,6-bisphosphate]", "values": [{"measurement": "thermal shift assay", "setting": "[4]", "value": "Glc-1,6-P2 is slightly more effective than Man-1,6-P2 (Table S1)"}]}
